For series [1], the target named is T1, Amine oxidase [flavin-containing] A (Homo sapiens, UniProt P21397).
T1 sequence (P21397 whole entry): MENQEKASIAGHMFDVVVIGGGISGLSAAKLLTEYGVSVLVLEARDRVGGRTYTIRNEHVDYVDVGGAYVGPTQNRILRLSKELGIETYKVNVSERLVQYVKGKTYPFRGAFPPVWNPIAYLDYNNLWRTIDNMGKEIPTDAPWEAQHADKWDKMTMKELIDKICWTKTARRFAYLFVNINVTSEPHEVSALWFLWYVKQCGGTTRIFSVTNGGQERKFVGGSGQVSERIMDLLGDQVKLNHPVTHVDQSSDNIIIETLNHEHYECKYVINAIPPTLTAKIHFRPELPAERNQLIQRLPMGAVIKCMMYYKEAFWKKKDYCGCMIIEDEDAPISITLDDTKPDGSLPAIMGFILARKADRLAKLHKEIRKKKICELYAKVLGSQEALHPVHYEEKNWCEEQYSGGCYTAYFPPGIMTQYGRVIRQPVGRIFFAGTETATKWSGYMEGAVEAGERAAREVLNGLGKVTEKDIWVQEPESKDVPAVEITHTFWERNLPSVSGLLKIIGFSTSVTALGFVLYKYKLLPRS
As to the kind of experiment: Inhibition of human recombinant MAOA expressed in baculovirus infected BTI-TN-5B1-4 insect cells assessed as hydrogen peroxide production from p-tyramine after 15 mins by amplex red assay.

Series [2] has as its target T2, Amine oxidase [flavin-containing] B (Homo sapiens, UniProt P27338).
T2 sequence (P27338 whole entry): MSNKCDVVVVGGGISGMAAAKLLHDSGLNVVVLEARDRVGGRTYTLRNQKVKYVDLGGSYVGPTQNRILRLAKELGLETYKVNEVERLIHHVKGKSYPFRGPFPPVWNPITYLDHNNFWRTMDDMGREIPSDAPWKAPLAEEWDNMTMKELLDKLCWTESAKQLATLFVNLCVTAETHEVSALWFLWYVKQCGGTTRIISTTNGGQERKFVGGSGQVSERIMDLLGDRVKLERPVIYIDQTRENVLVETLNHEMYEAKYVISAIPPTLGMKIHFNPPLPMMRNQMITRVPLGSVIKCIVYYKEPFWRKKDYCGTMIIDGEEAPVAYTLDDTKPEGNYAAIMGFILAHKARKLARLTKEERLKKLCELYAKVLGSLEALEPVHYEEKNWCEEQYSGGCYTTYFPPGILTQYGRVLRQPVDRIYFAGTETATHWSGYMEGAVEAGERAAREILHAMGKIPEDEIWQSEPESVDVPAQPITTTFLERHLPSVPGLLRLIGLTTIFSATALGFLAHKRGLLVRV
In words: biochemical. Format: cell-based, BTI-TN-5B1-4.
Description: Inhibition of human recombinant MAOB expressed in baculovirus infected BTI-TN-5B1-4 insect cells assessed as hydrogen peroxide production from p-tyramine after 15 mins by amplex red assay

The species named for a further series is Homo sapiens. As to the kind of experiment: Selectivity index, ratio of IC50 for human recombinant MAO-B to IC50 for human recombinant MAO-A.
Series [3] concerns the target T2, Amine oxidase [flavin-containing] B. As to the kind of experiment: Inhibition of human recombinant MAOB expressed in baculovirus infected BTI-TN-5B1-4 insect cells assessed as hydrogen peroxide production from p-tyramine at 1 mM after 15 mins by amplex red assay. Conditions: bti-tn-5b1-4, 0.25 h, 1000 µM; call rule not given here.

pIC50: −log10 of the molar value. A value given as a limit tells only on which side of the number the result lay.

In the case of `O=C1c2ccccc2C2=NCCc3cccc1c32`, the pIC50 in series [1] is 4.56; in series [2] it was less than 4.00. For the same compound, the Ratio IC50 in the series filed under Homo sapiens was greater than 3.7.

For `COc1cc2c3c(c1O)C(=O)c1ccccc1C3=NCC2`, the values for the pIC50 in series [1] and in series [2] were 7.36 and less than 4.00, respectively. Also, the Ratio IC50 in the series filed under Homo sapiens was greater than 2270.

Turning to `O=C1c2ccccc2-c2nccc3cccc1c23`, the pIC50 was 6.14 in series [1] and less than 4.00 in series [2]. Moreover, in the series filed under Homo sapiens, the Ratio IC50 is greater than 139.

Consider `COc1cc2c3c(c1)C(O)c1ccccc1C3NCC2` (centres undefined), for which the pIC50 in series [1] is 5.01; in series [2] it was less than 4.30. Moreover, the Ratio IC50 in the series filed under Homo sapiens was greater than 5.1.

Consider `O=C(NCCN1CCOCC1)c1ccc(Cl)cc1` [MOCLOBEMIDE], for which the “inhibition (INH)” value in series [3] is “Not Active”.

With `COc1cc2ccnc3c2c(c1O)C(=O)c1ccccc1-3`, the figures for the pIC50 in series [1] and in series [2] were 5.91 and less than 4.00, respectively. Moreover, in the series listed under Homo sapiens, the Ratio IC50 was greater than 81.

On to `COc1cc2c3c(nccc3c1)-c1ccccc1C2=O`, for which the pIC50 in series [2] is less than 4.00.

Consider `COc1cc2c3c(c1)C(=O)C1=C(CCCC1)C3=NCC2`, for which the negative-log IC50 (pIC50) is 5.67 in series [1] and less than 4.30 in series [2]. Moreover, the Ratio IC50 in the series listed under Homo sapiens was greater than 24.

Consider `COC1=Cc2ccnc3c2c(cc2ccccc23)C1=O`, for which the pIC50 in series [1] was 7.89; in series [2] it was less than 4.00. The Ratio IC50 in the series filed under Homo sapiens was greater than 7690.

On to `O=C1c2ccccc2-c2nccc3cc(O)cc1c23`, for which the pIC50 was 7.46 in series [1] and less than 4.00 in series [2]. For the same compound, in the series filed under Homo sapiens, the Ratio IC50 is greater than 2860.

`COc1cc2c3c(c1)C(=O)c1ccccc1C3=NCC2`: the figures for the pIC50 in series [1] and in series [2] were 7.85 and less than 4.00, respectively. In addition, in the series listed under Homo sapiens, the Ratio IC50 was greater than 7140.

As a reminder, the pIC50 is the negative decadic logarithm of the IC50, by convention in mol/L.
